Usually IC50 stands for the concentration that inhibits the measured activity by half.

In this experiment the test system is HUVEC grown in presence of VEGF. Nature of the experiment: VEGF-induced HUVEC proliferation (BrdU incorporation). It is filed as cell-based. Conditions: Homo sapiens, VEGF 10 ng ml^−1, 72 h. Here is the method:
Effect of kinase inhibitors on cell proliferation was measured using BrdU incorporation method using commercially available kits (Roche Diagnostics, Indianapolis, IN, USA). Briefly, HUVEC were seeded in a medium containing 5% FBS in type 1 Collagen-coated 96-well plates and incubated overnight at 37°C, 5% CO2. The medium was aspirated from the cells, and various concentrations of kinase inhibitors in serum-free medium were added to each well. After 30 min, VEGF (10 ng ml^−1) or bFGF (0.3 ng ml^−1) was added to the wells. Cells were incubated for an additional 72 h and BrdU (10 μM) was added during the last 18–24 h of incubation. Data were fitted with a curve described by the equation, y=Vmax × (1−(x/(K+x))), where K is equal to the IC50.
On the technique in general: Incorporation of labelled thymidine or its analogues reports DNA synthesis.

As for `CCS(=O)(=O)c1ccc(OC)c(Nc2nccc(N(C)c3ccc4c(C)n[nH]c4c3)n2)c1` [GW654652, N^2-[5-(ethylsulphonyl)-2-methoxyphenyl]-N^4-methyl-N^4-(3-methyl-1H-indazol-6-yl)pyrimidine-2,4-diamine], the half-inhibitory concentration (IC50) was 110 nM.

The values above are taken from paper PMC2409895, “Antitumour efficacy of VEGFR2 tyrosine kinase inhibitor correlates with expression of VEGF and its receptor VEGFR2 in tumour models” (British Journal of Cancer, 2004).
